Columns and labels:
[1] = Kinematic viscosity at 25° C. (ASTM D-445-97); format: physicochemical
Description: Kinematic viscosity was tested at 25° C. using ASTM (American Society of Testing and Materials, West Conshohocken, Pa., United States of America) Official Method No. D-445-97 (1997), the contents of which are incorporated herein by reference. Color was measured using ASTM D-1209-97 (1997), acid value was determined using ASTM D-972-95 (1995) and hydroxyl number was determined using a modified version of AOCS (American Oil Chemists Society, Champaign, Ill., United States of America) Official Method No. Cd-13-60 (1997), the contents of which are incorporated herein by reference. Odor was determined using a subjective olfactory assessment.

[2] = Spreading characteristics on WHATMAN filter paper (50 microliters); format: physicochemical; details: for Spreadibility (1 minute) / Spreadibility (3 minutes) / Spreadibility (5 minutes): 50 microliters on filter paper
Description: The spreading characteristics of fluid used in personal care products are an effective predictor of “skin feel.” To test the spreading characteristics a four inch WHATMAN® filter paper was positioned horizontally over an eight ounce jar. Fifty microliters of each product were then pipetted onto the center of the filter paper. The spreading area of the liquid was then measured at intervals of one, three, and five minutes. Faster spreading products will have a higher spreading area at each time interval.

Row | Structure (SMILES) | Viscosity at 25° C. [1] [cSt] | Spreadibility (1 minute) [2] [cm] | Spreadibility (3 minutes) [2] [cm] | Spreadibility (5 minutes) [2] [cm] | Spreadibility (1 minute) ([2]; listed as D5 Fluid) [cm] | Spreadibility (3 minutes) ([2]; listed as D5 Fluid) [cm] | Spreadibility (5 minutes) ([2]; listed as D5 Fluid) [cm] | viscosity ([1]; stated in description) [centistokes] | spreading (in words) ([2]; stated in description)
1 | CCCCCC(=O)OCCOCCOC(=O)CCCCC [DEGDH, diethylene glycol dihexanoate] | 14.4 | 2.98 | 3.43 | 3.68 | – | – | – | – | –
2 | CCC(CC)C(=O)OCC(C)(C)COC(=O)C(CC)CC [ND2EB, neopentyl glycol di-2-ethylbutyrate] | 7.6 | 3.00 | 3.43 | 3.63 | – | – | – | – | –
3 | CC(C)C(=O)OCC(C)(C)COC(=O)C(C)C [NDI] | 3.5 | 3.18 | 3.63 | 3.88 | – | – | – | – | –
4 | CCCCC(=O)OCC(C)(C)COC(=O)CCCC [NDP, neopentyl glycol dipentanoate] | 5.1 | 3.08 | 3.48 | 3.85 | – | – | – | 5.1 | rapidly spreading

Results, then the molecule that gave them:

Row | Viscosity at 25° C. [1] [cSt] | Spreadibility (1 minute) [2] [cm] | Spreadibility (3 minutes) [2] [cm] | Spreadibility (5 minutes) [2] [cm] | Spreadibility (1 minute) ([2]; listed as D5 Fluid) [cm] | Spreadibility (3 minutes) ([2]; listed as D5 Fluid) [cm] | Spreadibility (5 minutes) ([2]; listed as D5 Fluid) [cm] | viscosity ([1]; stated in description) [centistokes] | spreading (in words) ([2]; stated in description) | Structure (SMILES)
5 | – | 3.10 | 3.50 | 3.60 | – | – | – | – | – | C[Si]1(C)O[Si](C)(C)O[Si](C)(C)O[Si](C)(C)O1 [Example D4, reference compound]
6 | 4.0 | 2.90 | 3.40 | 3.60 | 2.9 | 3.4 | 3.6 | – | – | C[Si]1(C)O[Si](C)(C)O[Si](C)(C)O[Si](C)(C)O[Si](C)(C)O1 [Example D5, reference compound]
